Data from US20260224609A1, “TREATMENT OF GUT INFLAMMATORY DISEASES” (priority 2023, published 2026).

Legend:
ileo-cecal lesions = experiment: IBD model: ileo-cecal resection in transgenic HLA-B27 rats; format: in vivo; settings: 6 weeks after resection; treatment from week 8
Protocol: Transgenic HLA-B27 rats have been selected by the inventors as a model for ileo-cecal lesions in Humans (for instance common in Crohn's disease).
Twelve weeks-old rats (40, in five pools) are treated for the resection of distal ileum with proximal colon and the inflammation level was evaluated 6 weeks thereafter.

[1] = tested on: 2,4,6-trinitrobenzene sulfonic acid (TNBS)-induced colitis; experiment: TNBS-induced colitis in rats; format: in vivo, rats (Sprague Dauwley)
Protocol: The inventors have developed a model based on 2,4,6-trinitrobenzene sulfonic acid (TNBS)-induced colitis in rats (Sprague Dauwley); 80 mg/kg. Colorectal distension is measured 14 days prior to the TNBS induction, as well as 21, 35 and 49 days after the TNBS induction.
The bacteria B. breve and La have been formulated in sticks for ingestion; the stability having been validated.

HT-29 = experiment: Toxicity test CCK-8 on HT-29 cells under LPS; settings: inflammatory conditions, LPS 10 ng/ml
From the text: (§1) A cellular model with HT-29 and Caco-2 cells has been established.

Caco-2 cells = experiment: Toxicity test CCK-8 on Caco-2 cells; settings: inflammatory conditions, LPS 1 mg/ml
From the text: as §1

Candida albicans = experiment: Candida albicans-induced colitis model; format: in vivo, Balb/C female mice; settings: after 9 days; 150 mg/kg, curative
Protocol: The inventors have selected a group of Balb/C female mice under estradiol (2.5 mg/kg; 1 injection every 3 days, for 12 days) to develop a Candida albicans-induced colitis model.
The prevention treatment started during estradiol administration, whereas the curative treatments started 2 days after Candida inoculation. The mice were sacrificed 14 days after the inoculation.

In the case of `Nc1ccc(O)c(C(=O)O)c1` [pentasa], the post-operative relapses (ileo-cecal lesions) is reported as “markedly reduced”.

`Oc1cc(O)cc(O)c1` [Spasfon, Phloroglucinol] was tested, and the “macroscopic evaluation (Wallace scoring)” value ([1]; TNBS condition: 2.25) was 1.56, the “histological analysis of the inflammation (Ameho)” value ([1]; TNBS+vehicle: 2.00) was 1.56 and the pain threshold ([1]; also with Vitamin D) was “did not increase the pain threshold”.

`C=C1CC[C@H](O)C/C1=C/C=C1\CCC[C@]2(C)[C@@H]([C@H](C)CCCC(C)C)CC[C@@H]12` [Vitamin D, cholecalciferol (Vitamin D3)] was tested, and the “toxicity (CCK-8)” value (HT-29) was “no toxicity” and the “toxicity (CCK-8)” value (Caco-2 cells) was “no toxicity”.

For `OC(Cn1cncn1)(Cn1cncn1)c1ccc(F)cc1F` [Fluconazole], the mice remaining infected (Candida albicans) was “no mice remaining infected”.
